Assays:
[1] = system: 4T1-Dendra2 mammary tumors; assay: in vivo imaging of mammary tumors (fluorescence, IVIS Spectrum); design: species or system mice; settings: starting from 48 h post-injection
Source text: ICG (or indocyanine green / Infracyanine) is a fluorescent agent of the prior art, already approved for use in humans for evaluation of cardiac and hepatic function, as well as in ophthalmology, for retinal diseases. It is also undergoing evaluation in many clinical trials throughout the world for guidance of surgery during tumoral exereses, or mapping of the ganglia draining the tumors, by near infrared imaging. ICG was compared with compound (2) according to the invention, synthesis of which is described above in example 2; this compound is called CJ215 in this study.
The study included 30 mice in total, distributed in three groups. The tumoral grafts were all carried out with 50 000 cells 4T1-Dendra2 /20 µl injected in 2 mammary glands contralaterally for each of the mice. […]
The variation of the intensity of the fluorescence signals recorded for each of the biomarkers over time was evaluated from the microscopy image. The capacity of the two markers for producing a signal specifically localized to the tumor was assessed quantitatively by calculating the ratio of the specific signal associated with the tumor to the nonspecific signal in the surrounding tissues. […]
The quantitative measurements were performed on the raw images, which had not been deconvoluted. […]

[2] = system: orthotopic pancreatic adenocarcinoma; assay: ex vivo fluorescence imaging of pancreatic tumors; format: in vivo, mouse; settings: control dye
Method: A model of orthotopic pancreatic adenocarcinoma in the mouse was developed. The tumoral cells were amplified subcutaneously in SCID mice and the resultant fragments were then implanted surgically in the pancreas of irradiated BALB/c nude mice.
The development of the tumor was monitored in vivo by MRI (4.7T, PharmaScan, Bruker Biospin) at three time points, D14, 28 and 36. The animals were subjected to […] in order to minimize autofluorescence. Fluorescent imaging was performed with a charge-coupled device (CCD) camera (PhotonRT, BiospaceLab) with excitation at 700 nm and an emission filter at 770 nm.
After sessions of in vivo imaging performed at 2 h, 48 h and 164 h, ex vivo fluorescent images were acquired. The fluorescent compounds according to the invention 2 (CJ215) and CJ319 (the structure of which is detailed below) were injected intravenously at 2 mg/kg, 39 days after implantation of the tumor fragments, whereas the average volumes of the tumors were about 70 mm^3. Indocyanine green (ICG), a dye widely used in the per-operative imaging of tumors, was included as a control.

CC1(C)C(/C=C/C=C/C=C/C=C2\N(CCCCS(=O)(=O)O)c3ccc4ccccc4c3C2(C)C)=[N+](CCCCS(=O)(=O)[O-])c2ccc3ccccc3c21 [ICG, indocyanine green] was tested, and the “observability of the fluorescent signal in the tumors” value [1] was “no longer observable in the tumors” and the “specific accumulation in the pancreas or the tumor” value [2] was “did not show any specific accumulation”.
